Assays:
[1] = biological target: T1, human monoacylglycerol lipase (hMAGL) (Homo sapiens, UniProt Q99685); assay: target-based real-time 1H NMR (chemical shift perturbation, covalent adduct formation and reactivation; residence time […] h); IC50 on recombinant hMAGL also printed; format: biochemical; conditions: cited from earlier work
T1 construct: gene MGLL; highly purified recombinant hMAGL
T1 sequence (Q99685 1-303): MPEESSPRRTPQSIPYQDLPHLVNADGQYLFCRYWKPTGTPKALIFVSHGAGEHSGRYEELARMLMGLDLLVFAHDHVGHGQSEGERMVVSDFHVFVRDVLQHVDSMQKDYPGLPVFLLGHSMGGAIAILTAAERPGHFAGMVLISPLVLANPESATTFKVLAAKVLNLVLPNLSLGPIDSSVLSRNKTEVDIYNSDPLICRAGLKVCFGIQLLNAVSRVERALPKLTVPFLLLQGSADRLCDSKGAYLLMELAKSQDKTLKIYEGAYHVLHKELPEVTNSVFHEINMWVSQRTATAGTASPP

[2] = biological target: T1, human monoacylglycerol lipase (hMAGL); assay: target-based real-time 1H NMR (chemical shift perturbation, covalent adduct formation and reactivation; residence time); format: binding

Substance | IC50 [1] | target-based real-time 1H NMR (chemical shift perturbation, covalent adduct form) [2]
AM9928 | 8.9 nM | –
AM4301 | – | 1.4 h

Source: PMC8964799, “Inhibition of triple negative breast cancer-associated inflammation, tumor growth and brain colonization by targeting monoacylglycerol lipase” (Scientific Reports, 2022)
